Reference: the NIST ThermoML archive (doi:10.1021/je401120a)
± gives the expanded uncertainty stated by the source.

Test: refractive index (Na D-line) (dimensionless); xn = mol fraction of the nth substance listed
Settings: 101 kPa, Liquid, Standard Abbe refractometry

CCC[n+]1ccccc1.F[B-](F)(F)F [1-propylpyridinium tetrafluoroborate] + CO
refractive index
Settings | 293.15 K | 303.15 K | 313.15 K | 323.15 K
x1 = 0.0279 | 1.34377 ± 0.00042 | 1.3399 ± 0.00042 | 1.3361 ± 0.00042 | 1.33304 ± 0.00042
x1 = 0.0576 | 1.35657 ± 0.00041 | 1.35319 ± 0.00041 | 1.34994 ± 0.00041 | 1.34753 ± 0.00041
x1 = 0.0965 | 1.36988 ± 0.00041 | 1.36693 ± 0.00041 | 1.36409 ± 0.00041 | 1.36215 ± 0.00041
x1 = 0.1457 | 1.38283 ± 0.00041 | 1.38006 ± 0.00041 | 1.37759 ± 0.00041 | 1.37597 ± 0.00041
x1 = 0.1949 | 1.39301 ± 0.00042 | 1.3903 ± 0.00042 | 1.38806 ± 0.00042 | 1.38633 ± 0.00042
x1 = 0.2548 | 1.4028 ± 0.00042 | 1.40001 ± 0.00042 | 1.39755 ± 0.00042 | 1.39577 ± 0.00042
x1 = 0.3209 | 1.41121 ± 0.00043 | 1.40839 ± 0.00043 | 1.40578 ± 0.00043 | 1.40373 ± 0.00043
x1 = 0.3998 | 1.4189 ± 0.00044 | 1.41592 ± 0.00044 | 1.41304 ± 0.00044 | 1.41094 ± 0.00044
x1 = 0.496 | 1.42595 ± 0.00046 | 1.42315 ± 0.00046 | 1.42027 ± 0.00046 | 1.4177 ± 0.00046
x1 = 0.5983 | 1.43176 ± 0.00047 | 1.4289 ± 0.00047 | 1.42609 ± 0.00047 | 1.42341 ± 0.00047
x1 = 0.6901 | 1.43601 ± 0.00049 | 1.43321 ± 0.00049 | 1.43034 ± 0.00049 | 1.42772 ± 0.00049
x1 = 0.8007 | 1.44014 ± 0.00052 | 1.43738 ± 0.00052 | 1.43461 ± 0.00052 | 1.43193 ± 0.00052
x1 = 0.8821 | 1.44265 ± 0.00054 | 1.43997 ± 0.00054 | 1.43737 ± 0.00054 | 1.43464 ± 0.00054
x1 = 1 | 1.44588 ± 0.00057 | 1.44322 ± 0.00057 | 1.44057 ± 0.00057 | 1.43792 ± 0.00057
